Results reported in patent publication US4670433A, “Oxadiazolyl imidazobenzodiazepine derivatives pharmaceutical compositions thereof, and method of treating therewith” (A/S Ferrosan, priority 1985, dated 1987).

How the values were obtained:
[1] = target: benzodiazepine receptors; experiment: displacement of 3H-Ro 15-1788 from benzodiazepine receptors in vitro (rat cerebral cortical membrane homogenate); conditions: 50% displacement of specific binding of 3H-Ro 15-1788, 30° C.
Protocol: (§1) The pharmaceutical potency of the compounds of the present invention is evidenced by determining their capability for displacing radioactively-labelled flunitrazepam and the imidazobenzodiazepine ^3 H-Ro 15-1788 from such benzodiazepine receptors.
(§2) The displacement activity of the compounds of the invention has been determined by determining their IC50 and ED50 values. The IC50 value represents the concentration (nM, 30° C.) which causes a displacement of 50% of the specific binding of ^3 H-Ro 15-1788 in samples comprising a total volume of 1 ml.
The displacement test is performed as follows:
750 μl of rat cerebral cortical membrane homogenate was incubated with 100 μl of 5 nM ^3 H-Ro 15-1788 in water at 30° C. Then 100 μl of a solution of the test compound and 50 μl of Krebs buffer was added. After incubation the binding reaction was terminated by filtration through Whatman GF/B glass fibre filters followed by 2×5 ml wash with ice-cold buffer and the radioactivity was measured by scintillation counting. The IC50 was determined by including at least four concentrations of the test compound and log/probit analysis of the resulting data.

[2] = system: benzodiazepine receptors; experiment: in vivo displacement of 3H-flunitrazepam from benzodiazepine receptors in living mouse brain; conditions: dose reducing specific 3H-flunitrazepam binding to 50% of control; mice, usually subcutaneously, 15 min before 3H-flunitrazepam i.v., killed after a further 20 min, forebrain membranes
Protocol: as §1, §2
The ED50 value represents the dose (mg/kg) of a test substance which causes the specific binding of flunitrazepam to benzodiazepine receptors in a living brain to be reduced to 50% of the control value.
Such an in vivo test is carried out as follows:
Groups of mice are injected with the test substance at different doses and usually subcutaneously. Fifteen minutes later ^3 H-flunitrazepam is given intravenously to the mice and, after a further twenty minutes, the mice are killed. Their forebrain membranes are removed and the radioactivity of these forebrain membranes is measured by scintillation counting. The ED50 value is determined from dose-response curves.

SMILES | IC50 [1] | in vivo ED50 [2]
CCc1noc(-c2ncn3c2CN(C)C(=O)c2c(C)cccc2-3)n1 | 44.8 nM | 2.2 mg/kg
CCc1noc(-c2ncn3c2C2CCN2C(=O)c2c(C)cccc2-3)n1 (stereo not drawn) | 30 nM | 0.4 mg/kg
Cc1cccc2c1C(=O)N1CCC1c1c(-c3nc(C4CC4)no3)ncn1-2 (stereo not drawn) | 23 nM | 0.2 mg/kg
CCc1nc(-c2ncn3c2CN(C)C(=O)c2c-3cccc2C(F)(F)F)no1 | 5.6 nM | 0.5 mg/kg
COc1ccc2c(c1)C(=O)N(C)Cc1c(-c3nc(C)no3)ncn1-2 |  | 4.0 mg/kg
